Values quoted from earlier work as cited in US8957218B2, “2-oxo-1-imidazolidinyl imidazothiadiazole derivatives” (UCB Pharma S.A., priority 2011, dated 2015).

Test system: epilepsy (seizure control)
Details: Gower A. J. et al., Eur. J. Pharmacol. (1992), 222, 193-203

Structure (SMILES): CC[C@H](C(N)=O)N1CCCC1=O [(R)-α-ethyl-2-oxo-1-pyrrolidine acetamide]
- activity in the treatment of epilepsy (seizure control): completely lacks activity
